In brackets after ≈: the same amount, converted by molar mass. Like-named read-outs stand apart in the source and are kept apart here.
Key:
[1] = tested on: CuFi-1 cells; conditions: cited from earlier work; for ASL pH / ΔpH: ref [1]; for ΔpH: vs vehicle control
[2] = tested on: CuFi-4 cells; conditions: cited from earlier work
[3] = tested on: CuFi-1 cells; assay: Fluorescence microscopic assay of airway surface liquid (ASL) pH in CuFi-1 cells; format: cell-based, human
Method: Cell Lines and Growth Conditions. NuLi, CuFi-1, and CuFi-4 cells (Welsh Laboratory, University of Iowa) were grown from cryostock on Thermo Scientific BioLite Cell Culture Treated 75 cm^2 flasks. These flasks were previously coated with 4 mL of 60 μg/mL human placental collagen type IV (Sigma-Aldrich) for a minimum of 1 h at 37° C., rinsed twice with PBS, and then dried before seeding. The cells were cultured with 12 mL Bronchial Epithelial Cell Growth Medium (BEGM) BulletKit (Lonza CC-3170), which includes the basal medium and eight SingleQuots of supplements (bovine pituitary extract (BPE), 2 mL; hydrocortisone, 0.5 mL; hEGF, 0.5 mL; adrenaline, 0.5 mL; transferrin, 0.5 mL; insulin, 0.5 mL; retinoic acid, 0.5 mL; triiodothyronine, 0.5 mL). The gentamicin-AmB aliquot was discarded, and the medium was instead supplemented with 50 μg/mL penicillin-streptomycin (Corning Cellgro), 50 μg/mL gentamicin (Sigma-Aldrich G1397), and 2 μg/mL fluconazole (Sigma-Aldrich). […]
Fluorescence Microscopic Assay for Measurement of Airway Surface Liquid pH. […] Following dissolution in methanol, the AmB concentration in the stock suspension was measured in triplicate by absorbance spectroscopy. Concentrations were calculated from the absorbance at 406 nm (8406=164,000 M^−1 cm^−1) using Beer's law. […]
Small-diameter NuLi and CuFi cells were used for measurement of the ASL pH. […] ASL pH was measured 2 h later. […]

[4] = Solubility of AmB in aqueous media; format: physicochemical; conditions: 37° C.
[5] = tested on: primary cultured airway epithelial cells from individuals with CF; conditions: Primary human CF, 2 μM, ref [1], cited from earlier work
[6] = cited from earlier work
[7] = Particle size of wet-milled AmB suspensions (Malvern Mastersizer); format: physicochemical

CC(C)(C)c1cc(C(C)(C)C)c(NC(=O)c2c[nH]c3ccccc3c2=O)cc1O [Ivacaftor, ivacaftor]
ASL pH ([1]; CuFi-1, 2 μM): 6.82
ΔpH ([1]; CuFi-1, 2 μM): +0.07
increase in ASL pH ([1]; CuFi-1 cells with homozygous ΔF508 mutations): minimal increase in ASL pH
ASL pH ([2]; CuFi-4, 2 μM, ref [1]): 6.92
ΔpH ([2]; CuFi-4, 2 μM, vs vehicle control, ref [1]): +0.17
increase in ASL pH ([2]; CuFi-4 cells): about 0.2 pH units

C[C@@H]1[C@H](O)[C@@H](C)/C=C/C=C/C=C/C=C/C=C/C=C/C=C/[C@H](O[C@@H]2O[C@H](C)[C@@H](O)[C@H](N)[C@@H]2O)C[C@@H]2O[C@](O)(C[C@@H](O)C[C@@H](O)[C@H](O)CC[C@@H](O)C[C@@H](O)CC(=O)O[C@H]1C)C[C@H](O)[C@H]2C(=O)O [AmB, amphotericin B]
effect on ASL pH ([3]; CuFi-1, 2 μM in perfluorocarbon vehicle): effective
effect on ASL pH ([3]; CuFi-1, 50 μM AmB): not at a 50 μM AmB concentration
solubility in Gamble's solution [4]: 0.2 µg/mL (≈ 0.216 µM)
solubility in dilute Alveofact [4]: 0.2 µg/mL (≈ 0.216 µM)
solubility in water [4]: 0.5 µg/mL (≈ 0.541 µM)
ASL pH ([1]; CuFi-1, 2 μM): 7.06
ΔpH ([1]; CuFi-1, 2 μM): +0.18
ASL pH ([1]; CuFi-1, 50 μM): 6.80
ΔpH ([1]; CuFi-1, 50 μM): +0.02
ASL pH [5]: 6.97
ΔpH ([5]; vs vehicle control): +0.21
pKa amine group on the mycosamine ring [6]: 10.0
pKa carboxylate group [6]: 5.7

C[C@@H]1[C@H](O)[C@@H](C)/C=C/C=C/C=C/C=C/C=C/C=C/C=C/[C@H](O[C@@H]2O[C@H](C)[C@@H](O)[C@H](N)[C@@H]2O)C[C@@H]2O[C@](O)(C[C@@H](O)C[C@@H](O)[C@H](O)CC[C@@H](O)C[C@@H](O)CC(=O)O[C@H]1C)C[C@H](O)[C@H]2C(=O)O [′203, amphotericin B]
Primary Particle Size X50 after wet-milling ([7]; 1 pass (15 kpsi)): 1.14 μm
Primary Particle Size X90 after wet-milling ([7]; 1 pass (15 kpsi)): 2.46 μm
Primary Particle Size X50 after wet-milling ([7]; 3 passes (15, 15, 20 kpsi)): 1.06 μm
Primary Particle Size X90 after wet-milling ([7]; 3 passes (15, 15, 20 kpsi)): 2.14 μm

C[C@@H]1[C@H](O)[C@@H](C)/C=C/C=C/C=C/C=C/C=C/C=C/C=C/[C@H](O[C@@H]2O[C@H](C)[C@@H](O)[C@H](N)[C@@H]2O)C[C@@H]2O[C@](O)(C[C@@H](O)C[C@@H](O)[C@H](O)CC[C@@H](O)C[C@@H](O)CC(=O)O[C@H]1C)C[C@H](O)[C@H]2C(=O)O [′202, amphotericin B]
Primary Particle Size X50 after wet-milling ([7]; 1 pass (15 kpsi)): 3.01 μm
Primary Particle Size X90 after wet-milling ([7]; 1 pass (15 kpsi)): 6.93 μm
Primary Particle Size X50 after wet-milling ([7]; 3 passes (15, 15, 20 kpsi)): 2.16 μm
Primary Particle Size X90 after wet-milling ([7]; 3 passes (15, 15, 20 kpsi)): 5.99 μm

Reference: patent US20260199383A1 (priority 2022, published 2026)
